From BindingDB's records for patent US20230399319 (Japan Tobacco, 2023)
pIC50: −log10 of the molar value.

These compounds were tested against NACHT, LRR and PYD domains-containing protein 3 (Homo sapiens, UniProt Q96P20) (assay: Evaluation of NLRP3 Inflammasome Inhibitory Activity Assay).
Description: The NLRP3 inflammasome inhibitory activity of test compounds were evaluated CM the basis of the inhibitory activity of the IL-1β, production in THP1-Null cells (Product Number: thp-null, InvivoGen). […] A solution containing a test compound (20 μL/well) was added to test compound-setting wells. […] The supernatant of the culture was cryonically stored (set at −20° C.) until measurement of IL-1β.

Sequence of NACHT, LRR and PYD domains-containing protein 3 (Q96P20 whole entry, the tested form may be a part): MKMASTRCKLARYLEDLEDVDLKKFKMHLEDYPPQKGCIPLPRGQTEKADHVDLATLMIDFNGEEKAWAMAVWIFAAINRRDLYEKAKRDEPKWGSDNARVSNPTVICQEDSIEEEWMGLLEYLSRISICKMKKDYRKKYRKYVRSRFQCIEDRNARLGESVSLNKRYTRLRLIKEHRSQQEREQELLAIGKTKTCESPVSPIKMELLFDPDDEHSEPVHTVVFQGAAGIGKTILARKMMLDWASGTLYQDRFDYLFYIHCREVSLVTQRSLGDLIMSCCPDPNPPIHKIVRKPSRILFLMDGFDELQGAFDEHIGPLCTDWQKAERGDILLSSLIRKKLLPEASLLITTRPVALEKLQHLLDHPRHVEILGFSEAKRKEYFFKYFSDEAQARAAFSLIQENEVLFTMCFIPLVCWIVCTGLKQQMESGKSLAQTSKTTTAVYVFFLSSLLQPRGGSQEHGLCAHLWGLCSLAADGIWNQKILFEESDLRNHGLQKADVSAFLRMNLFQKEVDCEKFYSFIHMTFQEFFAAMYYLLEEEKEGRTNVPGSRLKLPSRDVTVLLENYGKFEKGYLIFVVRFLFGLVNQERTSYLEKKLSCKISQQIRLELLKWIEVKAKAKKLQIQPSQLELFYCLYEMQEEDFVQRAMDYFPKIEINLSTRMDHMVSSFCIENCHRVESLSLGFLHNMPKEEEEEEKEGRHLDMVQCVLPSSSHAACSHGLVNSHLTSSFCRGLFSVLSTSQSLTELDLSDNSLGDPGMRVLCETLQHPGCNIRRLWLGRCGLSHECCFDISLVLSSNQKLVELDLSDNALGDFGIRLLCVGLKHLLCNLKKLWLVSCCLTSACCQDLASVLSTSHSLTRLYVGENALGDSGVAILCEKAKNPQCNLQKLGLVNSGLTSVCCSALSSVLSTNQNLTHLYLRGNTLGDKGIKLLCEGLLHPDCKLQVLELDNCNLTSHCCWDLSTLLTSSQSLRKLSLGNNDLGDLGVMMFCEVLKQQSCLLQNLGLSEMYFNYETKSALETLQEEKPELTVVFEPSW

Structure (SMILES)	pIC50
COC(=O)CC1COCCN1S(=O)(=O)NC(=O)c1coc(Nc2c3c(c(Cl)c4c2CCC4)CCC3)n1 (racemic) [US20230399319, Example 73]	6.89
CC1CCN(S(=O)(=O)NC(=O)c2coc(Nc3c4c(c(F)c5c3CCC5)CCC4)n2)C1 (centres undefined) [US20230399319, Example 2-008]	6.74
CC1(C)CCN(S(=O)(=O)NC(=O)c2coc(Nc3c4c(c(F)c5c3CCC5)CCC4)n2)C1 [US20230399319, Example 2-009]	6.42
Cc1ccc(C(F)(F)F)cc1Nc1nc(C(=O)NS(=O)(=O)N2CCOC3(COC3)C2)co1 [US20230399319, Example 2-017]	7.08
Cc1ccc(C(F)(F)F)cc1Nc1nc(C(=O)NS(=O)(=O)N2CCC(S(C)(=O)=O)CC2)co1 [US20230399319, Example 2-018]	7.30
Cc1ccc(C(F)(F)F)cc1Nc1nc(C(=O)NS(=O)(=O)N2CCC(C)C2)co1 (centres undefined) [US20230399319, Example 2-019]	7.15
Cc1ccc(C(F)(F)F)cc1Nc1nc(C(=O)NS(=O)(=O)N2CCC(C)(C)C2)co1 [US20230399319, Example 2-020]	7.00
Cc1ccc(C(F)(F)F)cc1Nc1nc(C(=O)NS(=O)(=O)N2CCC(F)(F)C2)co1 [US20230399319, Example 2-021]	7.05
Cc1ccc(C(F)(F)F)cc1Nc1nc(C(=O)NS(=O)(=O)N2CCC(CS(C)(=O)=O)CC2)co1 [US20230399319, Example 2-022]	6.62
Cc1ccc(C(F)(F)F)cc1Nc1nc(C(=O)NS(=O)(=O)N2CCC(F)(F)CC2)co1 [US20230399319, Example 2-023]	6.89
Cc1ccc(C(F)(F)F)cc1Nc1nc(C(=O)NS(=O)(=O)N2CCC(C(F)(F)F)CC2)co1 [US20230399319, Example 2-024]	7.51
CC(C)c1ccc(C(F)(F)F)cc1Nc1nc(C(=O)NS(=O)(=O)N(C)C)co1 [US20230399319, Example 2-025]	> 7.52
CC(C)c1ccc(C(F)(F)F)cc1Nc1nc(C(=O)NS(=O)(=O)N2CCOCC2)co1 [US20230399319, Example 2-026]	> 7.52
Cc1cc(Cl)c(C(C)C)cc1Nc1nc(C(=O)NS(=O)(=O)N(C)C)co1 [US20230399319, Example 2-027]	7.47
Cc1cc(Cl)c(C(C)C)cc1Nc1nc(C(=O)NS(=O)(=O)N2CCOCC2)co1 [US20230399319, Example 2-028]	> 7.52
COC[C@@H]1CCCN1S(=O)(=O)NC(=O)c1coc(Nc2cc(C(F)(F)F)ccc2C)n1 [US20230399319, Example 2-038]	> 7.52
Cc1ccc(C(C)C)cc1Nc1nc(C(=O)NS(=O)(=O)N(C)C)co1 [US20230399319, Example 2-040]	6.89
Cc1c(Nc2nc(C(=O)NS(=O)(=O)N(C)C)co2)cc(C(F)(F)F)cc1C(F)(F)F [US20230399319, Example 2-041]	6.47
Cc1ccc(C(F)(F)F)cc1Nc1nc(C(=O)NS(=O)(=O)N(C(C)C)C(C)C)co1 [US20230399319, Example 2-051]	7.36
COC[C@H]1CCCN1S(=O)(=O)NC(=O)c1coc(Nc2cc(C(F)(F)F)ccc2C)n1 [US20230399319, Example 2-052]	6.89
Cc1ccc(C(F)(F)F)cc1Nc1nc(C(=O)NS(=O)(=O)N2[C@H](C)CCC[C@@H]2C)co1 [US20230399319, Example 2-053]	7.05
CN(C)S(=O)(=O)NC(=O)c1coc(Nc2cc(C(F)(F)F)ccc2C2CC2)n1 [US20230399319, Example 2-067]	7.04

Structure (SMILES)	pIC50
CC(C)c1ccc(C(C)C)c(Nc2nc(C(=O)NS(=O)(=O)N3CCCOCC3)co2)c1 [US20230399319, Example 2-071]	7.37
CC(C)c1ccc(C(F)(F)F)cc1Nc1nc(C(=O)NS(=O)(=O)N2CCCOCC2)co1 [US20230399319, Example 2-072]	7.57
Cc1ccc(C(F)(F)F)cc1Nc1nc(C(=O)NS(=O)(=O)N2CC(F)(F)C2)co1 [US20230399319, Example 2-077]	6.28
Cc1ccc(C(F)(F)F)cc1Nc1nc(C(=O)NS(=O)(=O)N2CCC2C)co1 (centres undefined) [US20230399319, Example 2-078]	7.00
Cc1ccc(C(F)(F)F)cc1Nc1nc(C(=O)NS(=O)(=O)N2CCC[C@H]2C(=O)N(C)C)co1 [US20230399319, Example 2-079]	6.55
Cc1ccc(C(F)(F)F)cc1Nc1nc(C(=O)NS(=O)(=O)N2CCC[C@@H]2C(=O)N(C)C)co1 [US20230399319, Example 2-080]	6.03
Cc1ccc(C(C)CC#N)cc1Nc1nc(C(=O)NS(=O)(=O)N(C)C)co1 (centres undefined) [US20230399319, Example 2-096]	5.74
Cc1ccc(C(F)(F)F)cc1Nc1nc(C(=O)NS(=O)(=O)N(C)CC#N)co1 [US20230399319, Example 2-108]	6.89
Cc1ccc(C(F)(F)F)cc1Nc1nc(C(=O)NS(=O)(=O)N2CCC(C#N)CC2)co1 [US20230399319, Example 2-109]	7.42
Cc1ccc(C(F)(F)F)cc1Nc1nc(C(=O)NS(=O)(=O)N(C)CC(=O)N(C)C)co1 [US20230399319, Example 2-110]	6.47
Cc1ccc(C(C)(C)C)cc1Nc1nc(C(=O)NS(=O)(=O)N2CCCOCC2)co1 [US20230399319, Example 2-112]	7.19
Cc1ccc(C)c(Nc2nc(C(=O)NS(=O)(=O)N3CCCOCC3)co2)c1C [US20230399319, Example 2-114]	6.47
Cc1cccc(C)c1Nc1nc(C(=O)NS(=O)(=O)N2CCCOCC2)co1 [US20230399319, Example 2-115]	5.89
CC(C)c1ccc(C(F)(F)F)cc1Nc1nc(C(=O)NS(=O)(=O)N2CCCN(C)CC2)co1 [US20230399319, Example 2-123]	6.68
CC(C)c1ccc(C(F)(F)F)cc1Nc1nc(C(=O)NS(=O)(=O)N2CCCC2CO)co1 (centres undefined) [US20230399319, Example 2-124]	7.33
Cc1ccc(C(C)(C)C)cc1Nc1nc(C(=O)NS(=O)(=O)N(C)CCN(C)C)co1 [US20230399319, Example 2-132]	5.72
Cc1ccc(C(F)(F)F)cc1Nc1nc(C(=O)NS(=O)(=O)N(C)Cc2cccnc2)co1 [US20230399319, Example 2-134]	7.10
CC(C)c1ccc(C(F)(F)F)cc1Nc1ncc(C(=O)NS(=O)(=O)N2CCCOCC2)o1 [US20230399319, Example 2-135]	7.36
Cc1ccc(C(F)(F)F)cc1Nc1nc(C(=O)NS(=O)(=O)N2CCCC(C#N)CC2)co1 (centres undefined) [US20230399319, Example 2-141]	8.01
Cc1ccc(C(F)(F)F)cc1Nc1nc(C(=O)NS(=O)(=O)N2CCCCCC2)co1 [US20230399319, Example 2-145]	7.38
Cc1ccc(C(F)(F)F)cc1Nc1nc(C(=O)NS(=O)(=O)N2CCCC(=O)CC2)co1 [US20230399319, Example 2-149]	7.49
Cc1ccc(C(F)(F)F)cc1Nc1nc(C(=O)NS(=O)(=O)N2CCCC(CC#N)CC2)co1 (centres undefined) [US20230399319, Example 2-150]	7.60

Structure (SMILES)	pIC50
COCC1COCCN(S(=O)(=O)NC(=O)c2coc(Nc3cc(C(F)(F)F)ccc3C)n2)C1 (centres undefined) [US20230399319, Example 2-151]	7.19
Cc1cn(CC(F)(F)F)nc1Nc1nc(C(=O)NS(=O)(=O)N2CCCOCC2)co1 [US20230399319, Example 2-152]	5.21
Cc1cn(C2CCCC2)nc1Nc1nc(C(=O)NS(=O)(=O)N2CCCOCC2)co1 [US20230399319, Example 2-153]	5.64
CCCCS(=O)(=O)N1CCCN(S(=O)(=O)NC(=O)c2coc(Nc3cn(C(C)C)nc3C(C)C)n2)CC1 [US20230399319, Example 2-161]	7.15
CC(=O)NCCN(C)S(=O)(=O)NC(=O)c1coc(Nc2cc(C(F)(F)F)ccc2C)n1 [US20230399319, Example 2-162]	6.52
Cc1ccc(C(F)(F)F)cc1Nc1nc(C(=O)NS(=O)(=O)N(C)Cc2ccccc2)co1 [US20230399319, Example 2-163]	7.31
COCCN(CCOC)S(=O)(=O)NC(=O)c1coc(Nc2cc(C(F)(F)F)ccc2C)n1 [US20230399319, Example 2-164]	6.85
Cc1ccc(C(F)(F)F)cc1Nc1nc(C(=O)NS(=O)(=O)N(C)C2CC2)co1 [US20230399319, Example 2-165]	7.00
Cc1ccc(C(C)C)cc1Nc1nc(C(=O)NS(=O)(=O)N(C)Cc2ccccn2)co1 [US20230399319, Example 2-167]	7.32
CCC(CC)n1cc(C)c(Nc2nc(C(=O)NS(=O)(=O)N3CCCOCC3)co2)n1 [US20230399319, Example 2-168]	5.01
Cc1ccc(C(F)(F)F)cc1Nc1nc(C(=O)NS(=O)(=O)N2CCCC(N(C)C)CC2)co1 (centres undefined) [US20230399319, Example 2-173]	6.92
Cc1ccc(C(F)(F)F)cc1Nc1nc(C(=O)NS(=O)(=O)N2CCCC2C)co1 (centres undefined) [US20230399319, Example 2-174]	7.26
Cc1cn(C(C)C(F)(F)F)nc1Nc1nc(C(=O)NS(=O)(=O)N2CCCOCC2)co1 (centres undefined) [US20230399319, Example 2-178]	6.06
Cc1ccc(C(F)(F)F)cc1Nc1nc(C(=O)NS(=O)(=O)N2CCCCC2C(F)F)co1 (centres undefined) [US20230399319, Example 2-187]	6.96
Cc1cn(C2CCC2)nc1Nc1nc(C(=O)NS(=O)(=O)N2CCCOCC2)co1 [US20230399319, Example 2-188]	6.10
Cc1ccc(C(F)(F)F)cc1Nc1nc(C(=O)NS(=O)(=O)N2CCOCC(F)(F)C2)co1 [US20230399319, Example 2-190]	7.77
CC(C)c1nn(C(C)C)cc1Nc1nc(C(=O)NS(=O)(=O)N2CCCC(C#N)CC2)co1 (centres undefined) [US20230399319, Example 2-191]	6.46
Cc1cn(C(C)C)nc1Nc1nc(C(=O)NS(=O)(=O)N2CCCC(C#N)CC2)co1 (centres undefined) [US20230399319, Example 2-192]	6.80
COC1CCN(S(=O)(=O)NC(=O)c2coc(Nc3cc(C(F)(F)F)ccc3C)n2)C1 (centres undefined) [US20230399319, Example 2-199]	6.80
CCC(C)n1cc(C)c(Nc2nc(C(=O)NS(=O)(=O)N3CCCOCC3)co2)n1 (centres undefined) [US20230399319, Example 2-200]	5.96
